Measured values from publication PMC10253357, “Acceptors and Effectors Alter Substrate Inhibition Kinetics of a Plant Glucosyltransferase NbUGT72AY1 and Its Mutants” (International Journal of Molecular Sciences, 2023).

Columns and labels:
NbUGT72AY1 [1] = molecular target: T1, NbUGT72AY1 (Nicotiana benthamiana, UniProt A0A8K1ZRH3); assay: UDP-Glo glucosyltransferase assay, UDP release; assay type: biochemical; settings: UDP-glucose donor, Tris pH 7.5, 40 °C
T1 construct: pGEX-4T-1 vector (GST fusion expected), expressed in E. coli BL21(DE3) pLysS
T1 sequence (A0A8K1ZRH3 1-477): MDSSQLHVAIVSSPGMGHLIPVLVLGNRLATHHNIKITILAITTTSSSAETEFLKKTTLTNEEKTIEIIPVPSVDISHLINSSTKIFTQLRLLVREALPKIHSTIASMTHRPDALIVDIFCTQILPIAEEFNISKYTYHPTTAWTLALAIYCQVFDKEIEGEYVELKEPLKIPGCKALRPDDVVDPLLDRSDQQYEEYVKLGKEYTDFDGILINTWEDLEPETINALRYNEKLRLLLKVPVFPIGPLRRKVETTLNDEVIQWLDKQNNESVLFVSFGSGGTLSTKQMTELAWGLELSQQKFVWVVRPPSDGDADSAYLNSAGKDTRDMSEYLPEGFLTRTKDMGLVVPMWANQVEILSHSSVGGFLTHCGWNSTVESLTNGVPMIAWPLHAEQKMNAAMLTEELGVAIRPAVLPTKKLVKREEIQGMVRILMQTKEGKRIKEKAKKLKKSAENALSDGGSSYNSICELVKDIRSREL

NbUGT72AY1 [2] = molecular target: T1, NbUGT72AY1; assay: UDP-Glo assay with vanillin, effector added; assay type: biochemical; settings: vanillin acceptor, UDP-glucose donor, Tris pH 7.5, 40 °C
NbUGT72AY1 [3] = molecular target: T1, NbUGT72AY1; assay: UDP-Glo glucosyltransferase assay, UDP release; assay type: biochemical; settings: UDP-glucose donor; Tris pH 7.5, 40 °C; fit with substrate inhibition and Hill coefficients
chimera A = molecular target: T2, chimera A; assay: UDP-Glo glucosyltransferase assay, UDP release; assay type: biochemical, Nicotiana benthamiana; settings: substrate inhibition constant, uncompetitive model with Hill coefficients; UDP-glucose donor; Tris pH 7.5, 40 °C
T2 construct: gene UGT72AY1; NbUGT72AY1 (MT945401) with a segment of StUGT72AY2 from Solanum tuberosum; pGEX-4T-1, E. coli

[4] = substrate: Oc1ccc(O)cc1; assay: UDP-Glo glucosyltransferase assay, UDP release; assay type: biochemical, Nicotiana benthamiana; settings: UDP-glucose donor, Tris pH 7.5, 40 °C, Michaelis-Menten, no substrate inhibition
[5] = substrate: O=c1c(O)c(-c2ccc(O)cc2)oc2cc(O)cc(O)c12; assay: UDP-Glo glucosyltransferase assay, UDP release; assay type: biochemical, Nicotiana benthamiana; settings: UDP-glucose donor, Tris pH 7.5, 40 °C, two products (3-O- and 7-O-glucoside)
[6] = substrate: COc1ccccc1O; assay: UDP-Glo glucosyltransferase assay, UDP release; assay type: biochemical, Nicotiana benthamiana; settings: UDP-glucose donor, Tris pH 7.5, 40 °C, fit with substrate inhibition and Hill coefficients
[7] = substrate inhibition constant, uncompetitive model with Hill coefficients
[8] = substrate inhibition constant, complete (Vi = 0), uncompetitive model with Hill coefficients

COc1cc(C=O)ccc1O [vanillin] gave a Ki (NbUGT72AY1 [1]; substrate inhibition constant, partial uncompetitive model with Hill coefficients (n = 1, x = 2), no effector) of 117 ± 24 µM.

In the case of CC1=C(/C=C/C(C)O)C(C)(C)CCC1 (stereo not drawn) [β-ionol], the “UDP-Glo assay with vanillin, effector added” value (“UDP-Glo assay with vanillin” for short) (NbUGT72AY1 [2]; effector at 100 and 200 µM) is reported as “addition of α- and β-ionol to the reaction resulted in a concentration-dependent increase in Ki”.

With CCCCCCCC/C=C\CCCCCCCC(=O)O [oleic acid] the “UDP-Glo assay with vanillin” value (NbUGT72AY1 [2]; effector at 20 and 100 µM) was “increased catalytic activity of NbUGT72AY1, noted after addition of stearic and oleic acid”.

For CC1=CCCC(C)(C)C1/C=C/C(C)O (stereo not drawn) [α-ionol], the “UDP-Glo assay with vanillin” value (NbUGT72AY1 [2]; effector at 100 and 200 µM) was “addition of α- and β-ionol to the reaction resulted in a concentration-dependent increase in Ki”.

With CCc1ccc(O)c(OC)c1 [ethylguaiacol] the Ki (NbUGT72AY1 [1]; [7]) was 345 ± 58 µM.

Work on C=CCc1ccc(O)c(OC)c1 [eugenol] yielded a Ki (NbUGT72AY1 [1]; [7]) of 62 ± 17 µM.

Cc1ccccc1O [o-cresol] was tested, and the Km (NbUGT72AY1 [3]) was 17 ± 9 µM and the Ki (NbUGT72AY1 [1]; [8]) was 1368 ± 165 µM.

COc1cc(/C=C/C=O)cc(OC)c1O [sinapaldehyde] was tested, and the Ki (NbUGT72AY1 [1]; [8]) was 1398 ± 283 µM and the Ki (chimera A) was 1437 ± 138 µM.

With CCCCCCCCCCCCCCCCCC(=O)O [stearic acid] the “UDP-Glo assay with vanillin” value (NbUGT72AY1 [2]; effector at 20 and 100 µM) was “Saturated stearic acid promoted the glycosylation activity of NbUGT72AY1 with vanillin”.

For COc1cc2ccc(=O)oc2cc1O [scopoletin], the Ki (NbUGT72AY1 [1]; substrate inhibition constant (partial uncompetitive model with Hill coefficients)) was 16 ± 1 µM.

With COc1ccccc1O [guaiacol] the Ki (NbUGT72AY1 [1]; [8]) was 1022 ± 69 µM.

B1: NbUGT72AY1 (Nicotiana benthamiana) (protein)
chain: T1 sequence (A0A8K1ZRH3 1-477)
notes: pGEX-4T-1 vector (GST fusion expected), expressed in E. coli BL21(DE3) pLysS
B1 gave a Km [4] of 331 ± 25 µM, a Km [5] of 15 ± 3 µM and a Km [6] of 179 ± 44 µM.
